From article PMC7024391, “Trypanocidal Activity of Flavanone Derivatives” (Molecules, 2020)

Legend:
[1] = system: Trypanosoma cruzi (amastigotes and trypomastigotes), Tulahuen strain; assay: Anti-Trypanosoma cruzi activity assay (amastigotes and trypomastigotes) in infected L929 cells, beta-galactosidase reporter; format: cell-based; details: 96 h incubation; for IC50: Trypanosoma cruzi, ± 0.2, read-out: Trypanocide IC50(μM) ± 0.2
Method: Flavanone derivatives were evaluated for anti-T. cruzi activity against the intracellular forms of the parasite. Although the use of epimastigotes present in the midgut vector may be utilized for initial screening, we have instead opted for the simultaneous use of trypomastigote and intracellular amastigotes forms that are present during both acute and chronic phases of the disease. This approach is in accordance with the Drugs for Neglected Diseases Initiative guidelines (DNDi). Moreover, it also has the advantage of evaluating bioactive compounds in infected cells while at the same time monitoring their effects on both the relevant forms of the parasite in the same system. Benznidazole was used as a positive control against T. cruzi and cytotoxicity was determined in mammalian L929 cells (Table 1). The bioavailability profile of the flavanones was evaluated by applying the Lipinski rule and data related to the risk of toxicity (mutagenicity, tumorigenicity, irritability, and effects on the reproductive system) carried out through online programs “Molinspiration” and “OSIRIS property explorer” (Table 1). […] Nevertheless, this preliminary result motivated us to investigate other analogs bearing substituents in order to improve potency and selectivity. […] Moreover, the selectivity of 2d was almost 4 times greater than 2a. The importance of methoxy substituents for trypanocidal activity has been noted in other studies. […] These compounds resembled more closely the chemical structure of the trypanocidal natural product (brevifolin carboxylate) that these structures were based on. Some enhancement in the trypanocidal activity of hybrid coumarin-chalcone compounds was also noted when the methoxy groups were introduced into either the 2 or 5 positions of the benzene ring. The inclusion of a pyridine moiety in compound 2e was supported by previous reports describing the anti-T. cruzi activity of 2-pyridyl derivatives and their capacity to inhibit cruzain catalytic activity. […] No improvements in anti-T. cruzi activity were also observed for flavanones substituted at the benzoyl moiety (2g–2o and 2v–2x). […] The physicochemical drug descriptors of the molecular properties for the synthesized compounds were calculated by Molinspiration software (Table 1). The majority of the tested compounds satisfy the Lipinski rule with no violations and therefore displaying potentially good bioavailability. There were no linear correlations observed between molecular hydrophobicity and bioactivity.
The in vitro anti-T. cruzi activity was evaluated on L929 cells (mouse fibroblasts) infected with Tulahuen strain of the parasite expressing the Escherichia coli β-galactosidase as reporter gene. Briefly, for the bioassay, 4000 L929 cells were added to each well of a 96-well microtiter plate. After an overnight incubation, 40,000 trypomastigotes were added to the cells and incubated for 2 h. Then, the medium containing extracellular parasites were replaced with 200 μL of fresh medium and the plate was incubated for an additional 48 h to establish the infection. For IC50 determination, the cells were exposed to each synthesized compound at serial decreasing dilutions and the plate was incubated for 96 h. After this period, 50 μL of 500 μM chlorophenol red beta-D-galactopyranoside (CPRG) in 0.5% Nonidet P40 was added to each well, and the plate was incubated for 16–20 h, after which the absorbance at 570 nm was measured. Controls with uninfected cells, untreated infected cells, infected cells treated with Benznidazole at 3.8 μM (positive control) or DMSO 1% were used. The results were expressed as the percentage of T. cruzi growth inhibition in compound-tested cells as compared to the infected cells and untreated cells. The IC50 values were calculated by linear interpolation. Quadruplicates were run in the same plate, and the experiments were repeated at least once.

[2] = In vitro cytotoxic test on uninfected L-929 cells (alamarBlue); format: cell-based, mouse; details: mouse, uninfected L-929 cells; mammalian L929 cells, 96 h, alamarBlue; ± 2.0; read-out: Cytotoxicity CC50(μM) ± 2.0
Method: (§1) The active compounds were tested in vitro for determination of cellular toxicity against uninfected L-929 cells using the alamarBlue® dye. The cells were exposed to compounds at increasing concentrations starting at IC50 value for T. cruzi. After 96 h of incubation with the tested compounds, the alamarBlue® was added and the absorbance at 570 and 600 nm measured after 4–6 h. The cell viability was expressed as the percentage of difference in the reduction between treated and untreated cells. IC50 values were calculated by linear interpolation, and the selectivity index (SI) was determined based on the ratio of the IC50 value in the host cell divided by the IC50 value of the parasite. Quadruplicates were run in the same plate, and the experiments were repeated at least once.

L929 cells = assay: as above; format: cell-based, mouse; details: CC50 L929 / IC50 T. cruzi
Method: as §1

COc1ccc([C@@H]2Oc3ccc(Cl)cc3C(=O)[C@H]2C(=O)c2ccccc2)cc1 (relative stereo) [Compound 2u, trans-3-benzoyl-6-chloro-2-(4-methoxyphenyl)chroman-4-one]
IC50 [1]: 59.2 µM | CC50 at 96 h [2]: 205 µM | SI (selectivity index calculated from CC50/IC50) (L929 cells): 3.5

COc1ccc(C(=O)[C@@H]2C(=O)c3ccccc3O[C@H]2c2ccc(OC)cc2)cc1 (relative stereo) [Compound 2m, trans-3-(4-methoxybenzoyl)-2-(4-methoxyphenyl)chroman-4-one]
IC50 [1]: 37.4 µM | CC50 at 96 h [2]: 103 µM | SI (selectivity index calculated from CC50/IC50) (L929 cells): 2.8

CCC1(C(=O)c2ccccc2)C(=O)c2ccccc2OC1c1ccccc1 (stereo not drawn) [Compound 4, 3-Benzoyl-3-ethyl-2-phenylchroman-4-one]
IC50 [1]: 13.2 µM | CC50 at 96 h [2]: 449 µM | SI (selectivity index calculated from CC50/IC50) (L929 cells): 34.03

O=C(c1ccco1)[C@@H]1C(=O)c2ccccc2O[C@H]1c1ccc(F)cc1 (relative stereo) [Compound 2x, trans-2-(4-fluorophenyl)-3-(furan-2-carbonyl)chroman-4-one]
Trypanocide IC50(μM) ± 0.2 [1]: Inactive

COc1ccc(C(=O)[C@@H]2C(=O)c3ccccc3O[C@H]2c2ccccc2)cc1 (relative stereo) [Compound 2l, trans-3-(4-methoxybenzoyl)-2-phenylchroman-4-one]
IC50 [1]: 223 µM | CC50 at 96 h [2]: 223 µM | SI (selectivity index calculated from CC50/IC50) (L929 cells): 1

O=C(c1ccccc1)[C@@H]1C(=O)c2ccccc2O[C@H]1c1ccc(F)cc1 (relative stereo) [Compound 2c, trans-3-benzoyl-2-(4-fluorophenyl)chroman-4-one]
IC50 [1]: 21.9 µM | CC50 at 96 h [2]: 231 µM | SI (selectivity index calculated from CC50/IC50) (L929 cells): 10.5

COc1ccc2c(c1)C(=O)[C@@H](C(=O)c1ccccc1)[C@H](c1ccccc1Cl)O2 (relative stereo) [Compound 2s, trans-3-benzoyl-2-(2-chlorophenyl)-6-methoxychroman-4-one]
IC50 [1]: 18.4 µM | CC50 at 96 h [2]: 102 µM | SI (selectivity index calculated from CC50/IC50) (L929 cells): 5.5

O=C(c1ccco1)[C@@H]1C(=O)c2ccccc2O[C@H]1c1ccccc1 (relative stereo) [Compound 2v, trans-3-(furan-2-carbonyl)-2-phenylchroman-4-one]
Trypanocide IC50(μM) ± 0.2 [1]: Inactive

O=C(c1ccccc1)[C@@H]1C(=O)c2ccccc2O[C@H]1c1ccccc1 (relative stereo) [Compound 2a, trans-3-benzoyl-2-phenylchroman-4-one]
IC50 [1]: 8.8 µM | CC50 at 96 h [2]: 80 µM | SI (selectivity index calculated from CC50/IC50) (L929 cells): 9.1

O=C(Cn1ccnc1[N+](=O)[O-])NCc1ccccc1 [Bnz, Benznidazole, reference compound]
IC50 [1]: 3.8 µM | SI (selectivity index calculated from CC50/IC50) (L929 cells): 625

C[C@@H]1Oc2ccccc2C(=O)[C@H]1C(=O)c1ccccc1 (relative stereo) [Compound 3, trans-3-benzoyl-2-methylchroman-4-one]
Trypanocide IC50(μM) ± 0.2 [1]: completely inactive

COc1ccc([C@@H]2Oc3ccccc3C(=O)[C@H]2C(=O)c2ccccc2)cc1 (relative stereo) [Compound 2d, trans-3-benzoyl-2-(4-methoxyphenyl)chroman-4-one]
IC50 [1]: 5.8 µM | CC50 at 96 h [2]: 223 µM | SI (selectivity index calculated from CC50/IC50) (L929 cells): 38.5

O=C(c1ccccc1)[C@@H]1C(=O)c2ccccc2O[C@H]1c1ccco1 (relative stereo) [Compound 2y, trans-3-benzoyl-2-(furan-2-yl)chroman-4-one]
IC50 [1]: 114 µM | CC50 at 96 h [2]: 503 µM | SI (selectivity index calculated from CC50/IC50) (L929 cells): 4.4

O=C(c1ccccc1)[C@@H]1C(=O)c2cc(Cl)ccc2O[C@H]1c1ccccc1 (relative stereo) [Compound 2t, trans-3-benzoyl-6-chloro-2-phenylchroman-4-one]
IC50 [1]: 23.2 µM | CC50 at 96 h [2]: 221 µM | SI (selectivity index calculated from CC50/IC50) (L929 cells): 9.5

O=C(c1ccc(Cl)cc1)[C@@H]1C(=O)c2ccccc2O[C@H]1c1ccccc1 (relative stereo) [Compound 2k, trans-3-(4-chlorobenzoyl)-2-phenylchroman-4-one]
IC50 [1]: 29.3 µM | CC50 at 96 h [2]: 110 µM | SI (selectivity index calculated from CC50/IC50) (L929 cells): 3.8

c1ccc(-c2n[nH]c3c2C(c2ccccc2)Oc2ccccc2-3)cc1 (stereo not drawn) [Compound 5, 3,4-diphenyl-1,4-dihydrochromeno[4,3-c]pyrazole]
IC50 [1]: 8.3 µM | CC50 at 96 h [2]: 38.6 µM | SI (selectivity index calculated from CC50/IC50) (L929 cells): 4.6

COc1ccc(C(=O)[C@@H]2C(=O)c3ccccc3O[C@H]2c2ccccc2Cl)cc1 (relative stereo) [Compound 2o, trans-2-(2-chlorophenyl)-3-(4-methoxybenzoyl)chroman-4-one]
IC50 [1]: 26.5 µM | CC50 at 96 h [2]: 408 µM | SI (selectivity index calculated from CC50/IC50) (L929 cells): 15.4

COc1ccc2c(c1)C(=O)[C@@H](C(=O)c1ccccc1)[C@H](c1ccccc1)O2 (relative stereo) [Compound 2p, trans-3-benzoyl-6-methoxy-2-phenylchroman-4-one]
Trypanocide IC50(μM) ± 0.2 [1]: Inactive

COc1ccc([C@@H]2Oc3ccccc3C(=O)[C@H]2C(=O)c2ccc(C)cc2)cc1 (relative stereo) [Compound 2i, trans-2-(4-methoxyphenyl)-3-(4-methylbenzoyl)chroman-4-one]
IC50 [1]: 25 µM | CC50 at 96 h [2]: 107 µM | SI (selectivity index calculated from CC50/IC50) (L929 cells): 4.3

O=C(c1ccccc1)[C@@H]1C(=O)c2ccccc2O[C@H]1c1ccc([N+](=O)[O-])o1 (relative stereo) [Compound 2z, trans-3-benzoyl-2-(5-nitrofuran-2-yl)chroman-4-one]
IC50 [1]: 2.6 µM | CC50 at 96 h [2]: 27.5 µM | SI (selectivity index calculated from CC50/IC50) (L929 cells): 10.6

O=C(c1ccccc1)[C@@H]1C(=O)c2ccccc2O[C@H]1c1ccc(OCc2ccccc2)cc1 (relative stereo) [Compound 2f, trans-3-benzoyl-2-(4-(benzyloxy)phenyl)chroman-4-one]
IC50 [1]: 7.6 µM | CC50 at 96 h [2]: 92.1 µM | SI (selectivity index calculated from CC50/IC50) (L929 cells): 12.1

O=C(c1ccccc1)[C@@H]1C(=O)c2ccccc2O[C@H]1c1ccccc1Cl (relative stereo) [Compound 2b, trans-3-benzoyl-2-(2-chlorophenyl)chroman-4-one]
IC50 [1]: 10.7 µM | CC50 at 96 h [2]: 442 µM | SI (selectivity index calculated from CC50/IC50) (L929 cells): 40.3

COc1ccc([C@@H]2Oc3ccccc3C(=O)[C@H]2C(=O)c2ccco2)cc1 (relative stereo) [Compound 2w, trans-3-(furan-2-carbonyl)-2-(4-methoxyphenyl)chroman-4-one]
Trypanocide IC50(μM) ± 0.2 [1]: Inactive

Cc1ccc(C(=O)[C@@H]2C(=O)c3ccccc3O[C@H]2c2ccccc2Cl)cc1 (relative stereo) [Compound 2j, trans-2-(2-chlorophenyl)-3-(4-methylbenzoyl)chroman-4-one]
IC50 [1]: 63 µM | CC50 at 96 h [2]: 62.5 µM | SI (selectivity index calculated from CC50/IC50) (L929 cells): 1

Cc1ccc(C(=O)[C@@H]2C(=O)c3ccccc3O[C@H]2c2ccccc2)cc1 (relative stereo) [Compound 2g, trans-3-(4-methylbenzoyl)-2-phenylchroman-4-one]
Trypanocide IC50(μM) ± 0.2 [1]: Inactive

COc1ccc(C(=O)[C@@H]2C(=O)c3ccccc3O[C@H]2c2ccc(F)cc2)cc1 (relative stereo) [Compound 2n, trans-2-(4-fluorophenyl)-3-(4-methoxybenzoyl)chroman-4-one]
IC50 [1]: 213 µM
